Test [1] has as its target recombinant Plk1 (Homo sapiens, UniProt P53350). The test is described as follows: In Vitro Plk1 Enzyme Assay (SPA, GST-Cdc25C phosphorylation). The format is biochemical. The note with it: ATP 64 nM, 90 minutes, read-out: IC50 (Plk1 enzyme inhibition).
Experimental: Reactions were stopped by addition of EDTA (110 mM) and the Cdc25C substrate captured via its GST tag to anti-GST antibody (Molecular Probes, Cat No A-5800) coated Protein A PVT SPA beads (Amersham Biosciences, Catalogue No. RPQ0019; 250 μg/well) in 50 mM HEPES pH7.5 buffer containing 0.05% (w/v) sodium azide and incubated for up to 2 hours, followed by the addition of 20 μl of 4M caesium chloride (final assay concentration of 1M). Plates were then left in the dark overnight before counting on a Packard TopCount NXT.
Radiolabelled phosphorylated substrate is formed in situ as a result of Plk1 mediated phosphorylation. The SPA beads contain a scintillant that can be stimulated to emit light. This stimulation only occurs when a radiolabelled phosphorylated substrate is bound to the surface of the coated SPA bead causing the emission of blue light that can be measured on a scintillation counter. Accordingly, the extent of Plk1 mediated Cdc25C phosphorylation was assessed. The raw assay data were then analysed by non-linear regression analysis and Plk1 enzyme inhibition for a given test compound is expressed as an IC50 value.
The subject of test [2] is human colon tumour cell line HT29. Put plainly: Cellular Assay (phosphohistone H3 Ser10 mitotic marker, HT29). The format is cell-based. The note with it: HT-29, 24 h, HT29 cells, read-out: IC50 (cellular assay, phosphohistone H3).
Experimental: Chromosome condensation in mitosis is accompanied by phosphorylation of histone H3 on serine 10.
After 24 hours, cells were fixed in 3.7% (v/v) formaldehyde then permeabilised and blocked for 10 minutes in 100 μl 0.5% (v/v) Triton X-100, 1% (w/v) bovine serum albumin (BSA) in phosphate buffered saline (PBS). […] The raw assay data were analysed by non-linear regression analysis and used to determine an IC50 value for each compound.

Some results are limits rather than exact numbers.

Sequence of recombinant Plk1 (P53350 whole entry): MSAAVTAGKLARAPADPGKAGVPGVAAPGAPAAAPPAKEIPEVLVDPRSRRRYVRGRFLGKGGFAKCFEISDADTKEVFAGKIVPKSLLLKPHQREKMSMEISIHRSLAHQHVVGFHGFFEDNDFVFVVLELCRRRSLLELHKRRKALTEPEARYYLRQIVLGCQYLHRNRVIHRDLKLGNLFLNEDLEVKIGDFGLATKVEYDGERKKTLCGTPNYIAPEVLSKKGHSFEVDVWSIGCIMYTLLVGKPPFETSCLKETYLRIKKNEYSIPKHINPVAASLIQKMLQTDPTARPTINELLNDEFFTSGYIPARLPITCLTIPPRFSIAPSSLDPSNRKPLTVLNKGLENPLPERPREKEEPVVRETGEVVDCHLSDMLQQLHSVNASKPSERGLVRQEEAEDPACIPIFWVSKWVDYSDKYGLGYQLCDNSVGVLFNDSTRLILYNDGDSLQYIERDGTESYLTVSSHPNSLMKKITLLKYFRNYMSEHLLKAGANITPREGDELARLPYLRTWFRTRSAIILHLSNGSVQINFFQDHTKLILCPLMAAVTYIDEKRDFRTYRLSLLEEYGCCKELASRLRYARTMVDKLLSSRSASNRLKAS

For orientation: IC50 means the concentration that gives 50% inhibition. With `COc1cc(C(=O)NCCCNc2ccccn2)ccc1Nc1ncc2c(n1)N(C1CCCC1)CCC(=O)N2C` [Example 38, 4-[(6-cyclopentyl-2-methyl-3-oxo-2,6,8,10-tetrazabicyclo[5.4.0]undeca-8,10,12-trien-9-yl)amino]-3-methoxy-N-[3-(pyridin-2-ylamino)propyl]benzamide], the IC50 in test [1] is less than 1000 nM; in test [2], less than 300 nM.
Regarding `CN1C(=O)CCN(C2CCCC2)c2nc(Nc3ccc4[nH]c(-c5cccnc5)nc4c3)ncc21` [Example 132, 6-cyclopentyl-2-methyl-9-[(2-pyridin-3-yl-1H-benzoimidazol-5-yl)amino]-2,6,8,10-tetrazabicyclo[5.4.0]undeca-8,10,12-trien-3-one], the IC50 in test [1] was less than 1000 nM; in test [2], less than 30000 nM.
Turning to `COc1cc(C(=O)NC2CCN(C(C)C)CC2)ccc1Nc1ncc2c(n1)N(C1CCCC1)CCC(=O)N2C` [Example 49, 4-[(6-cyclopentyl-2-methyl-3-oxo-2,6,8,10-tetrazabicyclo[5.4.0]undeca-8,10,12-trien-9-yl)amino]-3-methoxy-N-(1-propan-2-yl-4-piperidyl)benzamide], the IC50 in test [1] and in test [2] was less than 300 nM each time.
With `COc1cc(C(=O)NC2C[C@H]3CCC[C@@H](C2)N3C)ccc1Nc1ncc2c(n1)N(C1CCCCC1)CC1(CC1)C(=O)N2C` (stereo partly drawn) [Example 432, 4-(9′-cyclohexyl-5′-methyl-6′-oxo-5′,6′,8′,9′-tetrahydrospiro[cyclopropane-1,7′-pyrimido[5,4-b][1,4]diazepine]-2′-ylamino)-3-methoxy-N-[(1S,5R)-9-methyl-9-azabicyclo[3.3.1]non-7-yl]benzamide], the IC50 in test [1] and in test [2] was less than 300 nM throughout.
With `COc1cc(C(=O)NCCCCN(C)C)ccc1Nc1ncc2c(n1)N(C1CCCC1)CCC(=O)N2C` [Example 21, 4-[(6-cyclopentyl-2-methyl-3-oxo-2,6,8,10-tetrazabicyclo[5.4.0]undeca-8,10,12-trien-9-yl)amino]-N-(4-dimethylaminobutyl)-3-methoxy-benzamide], the concentration for half-maximal inhibition (IC50) in test [1] and in test [2] was less than 300 nM throughout.
As to `COc1cc(C(=O)NC2CCN(C)CC2)ccc1Nc1ncc2c(n1)N(C1CCCC1)CC(C)C(=O)N2C` (single isomer, unassigned) [Example 240], the IC50 in test [1] and in test [2] was less than 300 nM in each case.
Consider `CCOc1cc(C(=O)NC2CCN(CC)CC2)ccc1Nc1ncc2c(n1)N(C(C)C)CCC(=O)N2C` [Example 282, 3-ethoxy-N-(1-ethyl-4-piperidyl)-4-[(6-methyl-5-oxo-2-propan-2-yl-2,6,9,11-tetrazabicyclo[5.4.0]undeca-7,9,11-trien-10-yl)amino]benzamide], for which the IC50 in test [1] and in test [2] was less than 1000 nM in each case.
As to `COc1cc(OCCN2CCOCC2)ccc1Nc1ncc2c(n1)N(C1CCCC1)CCC(=O)N2C` [Example 115, 6-cyclopentyl-9-[[2-methoxy-4-(2-morpholin-4-ylethoxy)phenyl]amino]-2-methyl-2,6,8,10-tetrazabicyclo[5.4.0]undeca-8,10,12-trien-3-one], the 50% inhibitory concentration (IC50) was less than 1000 nM in test [1] and less than 30000 nM in test [2].
Regarding `COc1cc(C(=O)NC2CCN(C)CC2)ccc1Nc1ncc2c(n1)N(C1CCCC1)C(C)CC(=O)N2C` (centres unmarked) [Example 234, 4-[(6-cyclopentyl-2,5-dimethyl-3-oxo-2,6,8,10-tetrazabicyclo[5.4.0]undeca-8,10,12-trien-9-yl)amino]-3-methoxy-N-(1-methyl-4-piperidyl)benzamide], the concentration for half-maximal inhibition (IC50) in test [1] is less than 300 nM; in test [2], less than 1000 nM.
Regarding `COc1cc(C(=O)NC2CN3CCC2CC3)ccc1Nc1ncc2c(n1)N(C(C)C)CCC(=O)N2C` (centres unmarked) [Example 206, N-(1-azabicyclo[2.2.2]oct-8-yl)-3-methoxy-4-[(2-methyl-3-oxo-6-propan-2-yl-2,6,8,10-tetrazabicyclo[5.4.0]undeca-7,9,11-trien-9-yl)amino]benzamide], the IC50 in test [1] and in test [2] was less than 300 nM throughout.
For `COc1cc(OC2CCN(C)CC2)ccc1Nc1ncc2c(n1)N(C1CCCC1)CCC(=O)N2C` [Example 113, 6-cyclopentyl-9-[[2-methoxy-4-[(1-methyl-4-piperidyl)oxy]phenyl]amino]-2-methyl-2,6,8,10-tetrazabicyclo[5.4.0]undeca-8,10,12-trien-3-one], the IC50 in test [1] and in test [2] was less than 1000 nM each time.
As for `COc1cc(C(=O)NC2CCN(C)CC2)ccc1Nc1ncc2c(n1)N(C1CCCC1)CC1(CC1)C(=O)N2C` [Example 246, 4-(9′-cyclopentyl-5′-methyl-6′-oxo-5′,6′,8′,9′-tetrahydrospiro[cyclopropane-1,7′-pyrimido[5,4-b][1,4]diazepine]-2′-ylamino)-N-(1-methylpiperidin-4-yl)-3-methoxybenzamide], the IC50 in test [1] and in test [2] was less than 300 nM each time.
In the case of `CN1CCC(NC(=O)c2ccc(Nc3ncc4c(n3)N(C3CCCC3)CCC(=O)N4C)c(O)c2)CC1` [Example 186, 4-[(6-cyclopentyl-2-methyl-3-oxo-2,6,8,10-tetrazabicyclo[5.4.0]undeca-8,10,12-trien-9-yl)amino]-3-hydroxy-N-(1-methyl-4-piperidyl)benzamide], the IC50 is less than 300 nM in test [1] and less than 30000 nM in test [2].
Turning to `COc1cc(C(=O)NCCN2CCOCC2)ccc1Nc1ncc2c(n1)N(c1ccccc1)CCC(=O)N2C` [Example 220, 3-methoxy-4-[(2-methyl-3-oxo-6-phenyl-2,6,8,10-tetrazabicyclo[5.4.0]undeca-8,10,12-trien-9-yl)amino]-N-(2-morpholin-4-ylethyl)benzamide], the IC50 in test [1] was less than 1000 nM; in test [2], less than 30000 nM.
In the same order, the values of `COc1cc(C(=O)NCCN2CC3CCC(C2)O3)ccc1Nc1ncc2c(n1)N(C1CCCC1)CCC(=O)N2C` [Example 32, 4-[(6-cyclopentyl-2-methyl-3-oxo-2,6,8,10-tetrazabicyclo[5.4.0]undeca-8,10,12-trien-9-yl)amino]-3-methoxy-N-[2-(8-oxa-3-azabicyclo[3.2.1]oct-3-yl)ethyl]benzamide] are less than 1000 nM and less than 300 nM.
As for `CC(=O)N1CCN(c2ccc(Nc3ncc4c(n3)N(C3CCCC3)CCC(=O)N4C)cc2)CC1` [Example 128, 9-[[4-(4-acetylpiperazin-1-yl)phenyl]amino]-6-cyclopentyl-2-methyl-2,6,8,10-tetrazabicyclo[5.4.0]undeca-8,10,12-trien-3-one], the results for the IC50 in test [1] and in test [2] were less than 1000 nM and less than 30000 nM, respectively.
`Cc1ccc(Oc2ccccc2Nc2ncc3c(n2)N(C2CCCC2)CCC(=O)N3C)cc1` [Example 159, 6-cyclopentyl-2-methyl-9-[[2-(4-methylphenoxy)phenyl]amino]-2,6,8,10-tetrazabicyclo[5.4.0]undeca-8,10,12-trien-3-one]: the values for the 50% inhibitory concentration (IC50) in test [1] and in test [2] were less than 100000 nM and less than 30000 nM, respectively.
Turning to `COc1cc(C(=O)NC[C@@H]2CCCN2CC2CC2)ccc1Nc1ncc2c(n1)N(C1CCCC1)CCC(=O)N2C` [Example 82, 4-[(6-cyclopentyl-2-methyl-3-oxo-2,6,8,10-tetrazabicyclo[5.4.0]undeca-8,10,12-trien-9-yl)amino]-N-[[(2S)-1-(cyclopropylmethyl)pyrrolidin-2-yl]methyl]-3-methoxy-benzamide], the IC50 in test [1] and in test [2] was less than 300 nM throughout.
On to `CN1CCC(NC(=O)c2ccc(Nc3ncc4c(n3)N(c3ccccc3)CCC(=O)N4C)cc2)CC1` [Example 224, 4-[(2-methyl-3-oxo-6-phenyl-2,6,8,10-tetrazabicyclo[5.4.0]undeca-8,10,12-trien-9-yl)amino]-N-(1-methyl-4-piperidyl)benzamide], for which the IC50 in test [1] was less than 300 nM; in test [2], less than 30000 nM.
Consider `CN1C(=O)CCN(C2CCCC2)c2nc(Nc3ccc(C(=O)NCCN4CCOCC4)cc3)ncc21` [Example 191, 4-[(6-cyclopentyl-2-methyl-3-oxo-2,6,8,10-tetrazabicyclo[5.4.0]undeca-8,10,12-trien-9-yl)amino]-N-(2-morpholin-4-ylethyl)benzamide], for which the IC50 in test [1] and in test [2] was less than 1000 nM each time.
Regarding `CN1CCC(NC(=O)c2ccc(Nc3ncc4c(n3)N(C3CCCC3)CCC(=O)N4C)c(OC(F)(F)F)c2)CC1` [Example 199, 4-[(6-cyclopentyl-2-methyl-3-oxo-2,6,8,10-tetrazabicyclo[5.4.0]undeca-8,10,12-trien-9-yl)amino]-N-(1-methyl-4-piperidyl)-3-(trifluoromethoxy)benzamide], the figures for the IC50 in test [1] and in test [2] were less than 100000 nM and less than 300 nM, respectively.
On to `COc1cc(C(=O)NC2CCN(C)CC2)ccc1Nc1ncc2c(n1)N(C(C)C)CCC(=O)N2C` [Example 6, 3-Methoxy-4-[(6-methyl-5-oxo-2-propan-2-yl-2,6,9,11-tetrazabicyclo[5.4.0]undeca-7,9,11-trien-10-yl)amino]-N-(1-methyl-4-piperidyl)benzamide], for which the concentration for half-maximal inhibition (IC50) in test [1] and in test [2] was less than 300 nM throughout.
Turning to `COc1cc(C(=O)NC2CCN(C)CC2)ccc1Nc1ncc2c(n1)N(CCC(C)C)CCC(=O)N2C` [Example 7, 3-Methoxy-4-[[6-methyl-2-(3-methylbutyl)-5-oxo-2,6,9,11-tetrazabicyclo[5.4.0]undeca-7,9,11-trien-10-yl]amino]-N-(1-methyl-4-piperidyl)benzamide], the IC50 in test [1] and in test [2] was less than 1000 nM each time.
Consider `COc1cc(C(=O)NCCCCN)ccc1Nc1ncc2c(n1)N(C1CCCC1)CCC(=O)N2C` [Example 40, N-(4-aminobutyl)-4-[(6-cyclopentyl-2-methyl-3-oxo-2,6,8,10-tetrazabicyclo[5.4.0]undeca-8,10,12-trien-9-yl)amino]-3-methoxy-benzamide], for which the concentration for half-maximal inhibition (IC50) in test [1] is less than 300 nM; in test [2], less than 30000 nM.
Take `COCCN1CCN(c2ccc(Nc3ncc4c(n3)N(C3CCCC3)CCC(=O)N4C)c(OC)c2)CC1` [Example 105, 6-cyclopentyl-9-[[2-methoxy-4-[4-(2-methoxyethyl)piperazin-1-yl]phenyl]amino]-2-methyl-2,6,8,10-tetrazabicyclo[5.4.0]undeca-8,10,12-trien-3-one]: the IC50 in test [1] was less than 1000 nM; in test [2], less than 30000 nM.

The values are drawn from patent publication US7709471B2, “Compounds” (AstraZeneca AB, priority 2006, dated 2010).
